The results in this text go back to patent US20240390513A1, “PHARMACEUTICAL COMPOSITION FOR TREATING INFLAMMATORY DISEASES” (INDUSTRY FOUNDATION OF CHONNAM NATIONAL UNIVERSITY, priority 2021, published 2024).

The assay relates to HK-2 cells. The experiment in a line: Cellular uptake (fluorescence microscope, FACS, ICP-MS). It counts as cell-based, human. As to conditions: 4 hours, non-ROS conditions. On the procedure:
For uptake studies, HK-2 cells (3×10^4 cells/well) were seeded onto Lab-Tek® Chamber Slides and cultured overnight. […] Untreated cells were used as a control. After incubation, the medium was aspirated, followed by performing DPBS wash and 4% paraformaldehyde (PFA) fixation. The cells were then counterstained with 4′,6-diamidino-2-phenylindole (DAPI). A fluorescence intensity of IR780 was analyzed by fluorescence microscope (Evos FL Auto 2, Thermo Fisher Scientific) to determine IR780 uptake by cells. To confirm the effect of ROS on intracellular distribution and release, ROS conditions were mimicked by treating the cells with 200 μM H2O2 for 2 hours or culturing the cells in a hypoxia chamber for 2 days before treatment. Cellular uptake was further quantified by flow cytometry. Briefly, 1×10^5 HK-2 cells/well were seeded in a 12-well plate and incubated overnight. The medium was aspirated, another sample was added and incubated for 4 hours. […] The cells were then re-suspended in FACS buffer containing 3% FBS, and fluorescence-activated cell sorting (FACS) was performed to determine the uptake capacity of each group. […] The cellular uptake of the final PTC-M nanocomposite was determined by ICP-MS analysis. […] Aqua regia (1 ml) was added to the final pellets for digestion, then the sample was diluted and analyzed for manganese content by ICP-MS. […]

As to IR780 iodide, the “cellular uptake (IR780 fluorescence, microscope)” value is given as “higher uptake rate regardless of nanomicelle loading”.
